Measurements as given in paper PMC5848165 (Toxins, 2018).
Residues, ends and D or L forms follow the SMILES beside them.

Experiments:
Nav1.1 = assay: Whole-cell patch clamp, Nav1.1 in HEK293 cells; type: cell-based, rat; details: 1 µM, −10 mV from −80 mV
Excerpt: Nine sodium channel subtypes have been identified and classified as TTX-S (Nav1.1–Nav1.4, Nav1.6, and Nav1.7) or TTX-R types (Nav1.5, Nav1.8, and Nav1.9). […] However, the subtype selectivity of JZTX-34 on the subtype of sodium channel is still unknown. In this work, effects of JZTX-34 on VGSC subtypes (Nav1.1–Nav1.8) were examined. Nav1.1–Nav1.7 were transfected into HEK293 cells and Nav1.8 currents were expressed in ND cells. Inward sodium currents were elicited by a 50 ms depolarizing potential to −10 mV from a holding potential of −80 mV every 5 s. […] No effects on other sodium channel subtypes were found (Nav1.1, Nav1.2, Nav1.4–Nav1.6, and Nav1.8) (Figure S2). […]
The HEK293T cells were maintained in standard culture conditions (5% CO2 and 37 °C). […] After culturing for 36–72 h, cells with obvious green fluorescence were selected for sodium currents recordings the internal solution for sodium currents recording that contained (in mM) 140 CsF, 5 NaCl, 10 HEPES, 3 Na2-ATP, and 10 EGTA. […]
Sodium currents were recorded from DRG, HEK293, and ND cells by the whole-cell patch-clamp technique at 25 °C. […] Experiments date were acquired from whole-cell Axon 700B patch clamp amplifier (Molecular Devices, Sunnyvale, CA, USA) and analyzed by the program Clampfit10.0 (Molecular Devices, Sunnyvale, CA, USA) and Sigmaplot. […]

[1] = tested on: formalin-induced paw licking response in mice; assay: Formalin-induced paw licking; type: in vivo, mouse (Kunming); details: for paw licking time, early phase: control 145.5 s; for paw licking time, early phase / paw licking time, late phase: n = 6; for paw licking time, late phase: control 414.5 s
Protocol: Since Nav1.7 plays an important role in pain, the analgesic effects of JZTX-34 were examined in three animal models (formalin-induced paw licking, acetic acid-induced writhing, and hot plate). Intraplantar injection of formalin causes pain and can be divided into two phases. The early phase was neurogenic pain and usually occurred within […]), and the late phase was inflammatory pain lasting from 15 to 30 min).
Figure 6 Effects of JZTX-34 on pain. (A) Effects of JZTX-34 on the early phase (0–5 min) and late phase (15–30 min) of formalin-induced paw licking response in mice. (B) Effects of JZTX-34 on the acetic acid-induced writhing response in mice. (C)Effects of JZTX-34 on the hot plate test in mice.
The synthesized JZTX-34 was obtained according to the procedure as previously described. […] Rats (Sprague-Dawley) and Kunming mice were maintained in the Laboratory of Protein Chemistry of Hunan Normal University. All of the experimental involving animals were approved by the Animal Care and Use Committee of Hunan Normal University (2016-273, 13 October 2016).
Formalin test was performed according to the method described previously. […] After test samples were intraperitoneally (i.p.) injected, 5% formalin (20 μL) was injected to the plantar surface of right hind paw. The time spent licking the injected paw was counted every 5 min. Phase I was defined as 0–10 min, and Phase II defined as […].
Data from Axon 700B patch clamp were analyzed by Clampfit10.0 (Molecular Devices, Sunnyvale, CA, USA). Dose-response curves were fitted by the Hill logistic equation: y = 1 − (1 − fmax)/[…]. In this equation, n stands an empirical Hill coefficient and fmax is the fraction of current resistant to inhibition at high toxin (Tx) concentration. The G-V curves were obtained by calculating the conductance (G) at each voltage (V) using the equation G = I/(V1 − Vrev), with Vrev being the reversal potential determined for each cell individually. G-V curves were fitted using a Boltzmann equation—y = 1/(1 + exp[(Va − V)/κ])—in which Va, V, and κ represent midpoint voltage of kinetics, test potential, and slope factor, respectively. […] Statistical significance was calculated using Student’s t-test and was defined as p < 0.05.

In the case of `CC(C)C[C@@H]1NC(=O)[C@H](Cc2c[nH]c3ccccc23)NC(=O)[C@H](CCC(=O)O)NC(=O)[C@H](CCCNC(=N)N)NC(=O)[C@@H](NC(=O)[C@H](C)N)CSSC[C@@H]2NC(=O)[C@@H]3CSSC[C@@H](C(=O)N[C@H](C(=O)N[C@@H](Cc4c[nH]c5ccccc45)C(=O)N[C@@H](CC(=O)O)C(=O)N[C@@H](Cc4c[nH]c5ccccc45)C(=O)N[C@H](C(=O)N[C@H](C(=O)O)C(C)C)[C@@H](C)O)C(C)C)NC(=O)[C@H](Cc4c[nH]cn4)NC(=O)[C@H](Cc4ccc(O)cc4)NC(=O)[C@@H]4CCCN4C(=O)[C@H](Cc4c[nH]c5ccccc45)NC(=O)[C@H](CCCCN)NC(=O)[C@H](CCCCN)NC(=O)[C@H](CCCNC(=N)N)NC(=O)[C@H](CSSC[C@H](NC(=O)CNC(=O)CNC1=O)C(=O)N[C@@H](CO)C(=O)N[C@@H](CCCCN)C(=O)N[C@@H](CC(=O)O)C(=O)N[C@@H](C)C(=O)N[C@@H](CC(=O)O)C(=O)N3)NC(=O)[C@H](CCC(=O)O)NC(=O)[C@H](CC(C)C)NC(=O)[C@H](Cc1c[nH]cn1)NC(=O)[C@H](C)NC2=O` [JZTX-34, Jingzhaotoxin-34] (HELM PEPTIDE1{A.C.R.E.W.L.G.G.C.S.K.D.A.D.C.C.A.H.L.E.C.R.K.K.W.P.Y.H.C.V.W.D.W.T.V}$PEPTIDE1,PEPTIDE1,2:R3-16:R3|PEPTIDE1,PEPTIDE1,9:R3-21:R3|PEPTIDE1,PEPTIDE1,15:R3-29:R3$$$V2.0; N-terminus and C-terminus assumed), the “effect on Nav1.1 currents” value (Nav1.1) is reported as “No effects”, the “paw licking time, early phase” value ([1]; 0.5 mg/kg i.p.) is reported as 125.5 s and the “paw licking time, late phase” value ([1]; 0.5 mg/kg i.p.) is reported as 282.2 s. The “paw licking time, early phase” value ([1]; 1 mg/kg i.p.) was 50.1 s, the “paw licking time, late phase” value ([1]; 1 mg/kg i.p.) was 263.6 s and the “paw licking time, early phase” value ([1]; 2 mg/kg i.p.) was 34.7 s. The “paw licking time, late phase” value ([1]; 2 mg/kg i.p.) was 148.0 s and the “formalin first phase, efficacy vs morphine” value ([1]; JZTX-34 2 mg/kg vs morphine 5 mg/kg) was “equipotent with morphine (5 mg/kg)”.
